Assay results reported in ChEMBL document CHEMBL1201862, “PubChem BioAssay data set” (2004).
The source made the active and inactive calls.

Tests used:
[1] = Trypanosoma cruzi growth suppression in host cells – NIH3T3 host cells, beta-gal luminescence, confirmation (AID 2044); type: functional, cell-based;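 note: intracellular parasites grown in NIH/3T3 mouse fibroblasts as host cells; luminescent beta-galactosidase reporter signal from transgenic T. cruzi replicating inside host cells; inhibitors lower the luminescence signal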
[2] = NIH3T3 cell viability loss – ATP luminescence, mouse fibroblasts, counter-screen, dose response (AID 2010); type: functional, cell-based;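 note: cells exposed to compound for about 90 hours before reading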
[3] = tested on: Streptococcus sp. 'group A'; test: Streptococcus pyogenes SK(-)GAS viability under kanamycin – luminescence, BacTiterGlo, confirmation, counter-screen for streptokinase expression inhibitor project, dose response (AID 1900); type: functional, organism-based
[4] = biological target: T1, Streptokinase A (Streptococcus pyogenes serotype M1, UniProt P10520); test: viability-normalized secreted streptokinase activity reduction – plasminogen activation absorbance, OD405, dose response (AID 1914); type: functional, Streptococcus pyogenes M1 GAS;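 note: secreted streptokinase activity via plasminogen activation per viability signal from cell pellet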
T1 sequence (P10520 whole entry): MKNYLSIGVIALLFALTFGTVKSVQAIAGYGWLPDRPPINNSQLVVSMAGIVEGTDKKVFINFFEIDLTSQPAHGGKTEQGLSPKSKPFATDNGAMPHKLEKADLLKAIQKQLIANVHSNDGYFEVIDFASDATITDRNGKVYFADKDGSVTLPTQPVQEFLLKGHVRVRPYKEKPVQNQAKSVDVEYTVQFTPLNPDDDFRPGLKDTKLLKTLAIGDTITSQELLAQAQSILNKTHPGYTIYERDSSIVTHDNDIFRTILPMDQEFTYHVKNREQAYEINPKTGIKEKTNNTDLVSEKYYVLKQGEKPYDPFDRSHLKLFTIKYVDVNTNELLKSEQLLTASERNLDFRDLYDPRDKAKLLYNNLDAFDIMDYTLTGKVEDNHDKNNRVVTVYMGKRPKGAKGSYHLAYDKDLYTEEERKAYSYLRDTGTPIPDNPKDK

[5] = tested on: Streptococcus; test: GAS UMAA2166 growth inhibition – luminescence, BacTiterGlo, counter-screen for streptokinase expression inhibitor project, dose response (AID 1915); type: functional, organism-based;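 note: potency for reduction of bacterial viability or growth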
[6] = biological target: T2, Heat shock factor protein 1 (Mus musculus, UniProt P38532); test: decrease of HSF1-responsive luciferase luminescence – cell-based, NIH3T3, dose retest, confirmation (AID 2382); type: functional;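 note: NIH3T3 fibroblasts with HSF1-driven luciferase reporter stressed by proteasome inhibitor MG132; luminescence from HSF1-driven luciferase expression after 8 hours of MG132 stress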
T2 sequence (P38532 whole entry): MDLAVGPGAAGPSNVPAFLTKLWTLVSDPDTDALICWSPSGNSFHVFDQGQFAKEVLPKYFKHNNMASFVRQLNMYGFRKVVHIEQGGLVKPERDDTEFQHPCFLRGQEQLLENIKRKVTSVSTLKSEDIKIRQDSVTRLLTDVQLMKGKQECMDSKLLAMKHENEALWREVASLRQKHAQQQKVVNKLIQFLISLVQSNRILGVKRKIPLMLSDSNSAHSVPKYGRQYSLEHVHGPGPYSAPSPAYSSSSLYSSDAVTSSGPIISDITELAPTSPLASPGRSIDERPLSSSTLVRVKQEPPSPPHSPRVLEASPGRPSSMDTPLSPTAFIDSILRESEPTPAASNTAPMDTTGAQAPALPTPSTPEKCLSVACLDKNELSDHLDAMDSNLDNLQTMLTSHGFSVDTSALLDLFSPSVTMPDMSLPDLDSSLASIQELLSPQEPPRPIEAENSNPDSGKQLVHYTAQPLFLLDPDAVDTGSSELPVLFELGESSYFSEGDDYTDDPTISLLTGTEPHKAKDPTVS

[7] = biological target: Cytochrome P450 2C9 (Homo sapiens, UniProt P11712)
[8] = biological target: Cytochrome P450 2C19 (Homo sapiens, UniProt P33261); test: Cytochrome panel assay with activity outcomes. Panel member name: p450-cyp2c19 Compounds with AC50 equal or less than 10 uM are considered active; type: functional
[9] = biological target: T3, Rac GTPase-activating protein 1 (Homo sapiens, UniProt Q9H0H5); test: blockers of MgcRacGAP-driven Rac1 GTP hydrolysis – biochemical, ADP Hunter fluorescence, primary and confirmatory, confirmation (AID 624330); type: functional
T3 sequence (Q9H0H5 whole entry): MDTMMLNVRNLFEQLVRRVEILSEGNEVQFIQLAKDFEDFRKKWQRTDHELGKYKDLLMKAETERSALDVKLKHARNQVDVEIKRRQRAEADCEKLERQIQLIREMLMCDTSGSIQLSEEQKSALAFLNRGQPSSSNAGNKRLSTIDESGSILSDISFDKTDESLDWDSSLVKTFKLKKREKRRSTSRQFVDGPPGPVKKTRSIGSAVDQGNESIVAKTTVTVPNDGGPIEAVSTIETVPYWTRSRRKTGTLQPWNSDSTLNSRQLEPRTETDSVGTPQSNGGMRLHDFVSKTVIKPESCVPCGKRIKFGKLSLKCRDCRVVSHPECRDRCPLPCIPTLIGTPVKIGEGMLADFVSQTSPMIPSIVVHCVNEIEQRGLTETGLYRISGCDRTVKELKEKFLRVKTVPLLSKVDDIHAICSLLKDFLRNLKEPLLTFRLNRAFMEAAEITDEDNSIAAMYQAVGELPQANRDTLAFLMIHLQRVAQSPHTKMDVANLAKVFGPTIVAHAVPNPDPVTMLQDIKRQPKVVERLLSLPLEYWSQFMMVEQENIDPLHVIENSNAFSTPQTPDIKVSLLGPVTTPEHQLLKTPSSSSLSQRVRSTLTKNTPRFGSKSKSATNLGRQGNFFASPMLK

Cytochrome P450 2C9, sequence (P11712 whole entry): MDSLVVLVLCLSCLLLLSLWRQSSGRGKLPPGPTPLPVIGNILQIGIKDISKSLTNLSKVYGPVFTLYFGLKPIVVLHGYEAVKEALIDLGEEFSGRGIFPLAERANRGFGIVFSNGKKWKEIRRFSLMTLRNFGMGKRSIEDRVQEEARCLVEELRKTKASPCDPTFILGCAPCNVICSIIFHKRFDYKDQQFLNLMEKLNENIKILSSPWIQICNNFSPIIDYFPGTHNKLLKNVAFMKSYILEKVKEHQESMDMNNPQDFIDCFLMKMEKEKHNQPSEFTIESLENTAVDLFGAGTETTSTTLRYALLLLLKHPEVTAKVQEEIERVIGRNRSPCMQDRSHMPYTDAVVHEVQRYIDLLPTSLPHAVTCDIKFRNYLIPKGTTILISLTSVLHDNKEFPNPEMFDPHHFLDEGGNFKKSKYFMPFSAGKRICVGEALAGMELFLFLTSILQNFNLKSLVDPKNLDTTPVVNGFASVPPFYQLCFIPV
Cytochrome P450 2C19, sequence (P33261 whole entry): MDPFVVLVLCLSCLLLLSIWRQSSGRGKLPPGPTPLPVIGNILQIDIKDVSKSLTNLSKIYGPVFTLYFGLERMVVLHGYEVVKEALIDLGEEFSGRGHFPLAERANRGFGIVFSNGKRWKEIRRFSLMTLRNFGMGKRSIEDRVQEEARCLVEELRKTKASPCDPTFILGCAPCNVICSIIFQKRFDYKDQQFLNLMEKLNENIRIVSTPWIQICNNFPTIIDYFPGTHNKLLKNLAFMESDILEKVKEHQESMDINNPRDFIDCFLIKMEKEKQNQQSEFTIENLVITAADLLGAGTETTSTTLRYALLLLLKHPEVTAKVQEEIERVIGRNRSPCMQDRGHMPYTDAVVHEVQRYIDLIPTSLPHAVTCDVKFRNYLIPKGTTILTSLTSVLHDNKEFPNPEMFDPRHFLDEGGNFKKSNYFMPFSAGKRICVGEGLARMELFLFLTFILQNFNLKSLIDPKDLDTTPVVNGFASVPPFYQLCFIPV

SMILES: Cc1ccc(CNC(=O)CSc2nc3c(sc4ccccc43)c(=O)n2CCCN2CCCC2)cc1
- EC50 [1]: 1.5 µM (active)
- EC50 [2]: 32.5 µM (active)

SMILES: COc1ccc(C(=O)NCC(=O)OCCCOC(=O)CNC(=O)c2ccc(OC)c(OC)c2)cc1OC
- EC50 [3]: > 150 µM (not active)
- EC50 [4]: > 150 µM (not active)
- EC50 [5]: > 150 µM (not active)

SMILES: COC(=O)CCNC(=O)c1ccc2nc(Cc3ccc(OC)cc3)oc2c1
- EC50 [6]: > 195 µM (not active)

SMILES: CC1CC(C)CN(c2ccc(C(=O)NCc3ccc4c(c3)OCO4)cc2[N+](=O)[O-])C1 (configuration not stated)
- EC50 [1]: 1.1 µM (active)
- EC50 [2]: > 60 µM (not active)

SMILES: CSc1ccc(CNc2ccc(C)c(C)c2)cc1
- AC50 [7]: 14.1 µM (inconclusive)

SMILES: Cc1ccsc1/C=C(\C(=O)c1ccc(OC(C)C)cc1)c1nc2ccccc2o1
- EC50 [1]: 1.69 µM (active)
- EC50 [2]: > 60 µM (inconclusive)

SMILES: O=C(c1ccc(N2CCCCC2)c([N+](=O)[O-])c1)N(Cc1ccccc1)c1ccccn1
- AC50 [7]: 7.94 µM (inconclusive)

SMILES: Nc1ccc(-c2ccc(Nc3cc(S(=O)(=O)O)c(N)c4c3C(=O)c3ccccc3C4=O)cc2)c(S(=O)(=O)O)c1
- AC50 [7]: 6.31 µM (inconclusive)

SMILES: O=c1c(-c2cc(F)cc(F)c2)nc2cnc(N3CCNCC3)nc2n1Cc1ccc(F)cc1
- AC50 [7]: 12.6 µM (inconclusive)

SMILES: O=C(Nc1ccccc1)NC1CC2CCC(C1)N2 (configuration not stated)
- EC50 [6]: > 195 µM (not active)

SMILES: O=C(CP(=O)(c1ccccc1)c1ccccc1)Nn1cnnc1
- AC50 [8]: inconclusive

SMILES: Cc1ccc(CN2CCN(Cc3ccco3)CC2)cc1
- IC50 [9]: 72.7 µM (active)

SMILES: Nc1nc(CSc2ncn(-c3ccccc3)n2)cs1
- EC50 [6]: > 195 µM (not active)

SMILES: CCn1c2ccccc2n2c(=O)c(=O)n(CC(=O)Nc3ccc(C(C)C)cc3)nc12
- EC50 [6]: > 195 µM (not active)

SMILES: Clc1cc(Cl)c(OCCCCn2cncn2)c(Cl)c1
- IC50 [9]: 156 µM (active)

SMILES: O=C(Nc1ccc(N2CCCC2)c(Cl)c1)c1ccc2c(c1)OCCO2
- EC50 [1]: 0.555 µM (active)
- EC50 [2]: > 30 µM (not active)

SMILES: O=C(Nc1ccc2[nH]c(-c3cccnc3)nc2c1)c1ccccc1F
- EC50 [6]: > 195 µM (not active)

SMILES: Cc1ccc(NC(=S)N=Nc2c(O)[nH]c3ccccc23)cc1
- EC50 [3]: 1.22 µM (active)
- EC50 [4]: > 150 µM (not active)
- EC50 [1]: 2.17 µM (active)
- EC50 [2]: 4.31 µM (active)
- EC50 [5]: 6.61 µM (active)

SMILES: CC(OC(=O)c1ccc(NC(=O)CC#N)cc1)C(=O)NC(=O)NC1CCCCC1 (configuration not stated)
- EC50 [3]: 57.5 µM (active)
- EC50 [4]: > 150 µM (not active)
- EC50 [5]: > 150 µM (not active)

SMILES: COc1ccc(NC2CCCN(C(=O)c3cccc(N(C)C)c3)C2)cc1 (configuration not stated)
- IC50 [9]: 84.9 µM (active)

SMILES: Cc1cc(-c2ccc(Cl)cc2)oc(=O)c1NC(=O)c1ccccc1
- AC50 ([8]; read-out: AC50): 3.55 µM (inconclusive)

SMILES: O=C1c2cccc3c(Nc4ccccc4Cl)c([N+](=O)[O-])cc(c23)C(=O)N1CCO
- EC50 [1]: 0.519 µM (active)
- EC50 [2]: > 60 µM (not active)

SMILES: CCOC(=O)c1ccc(Cl)c(NC(=O)c2cccnc2)c1
- EC50 [6]: 30.8 µM (active)

SMILES: COc1cc(/C=N\NC(=O)c2ccc(Cn3cc(Br)c([N+](=O)[O-])n3)o2)cc(OC)c1O
- EC50 [3]: 2.67 µM (active)
- EC50 [5]: 4.9 µM (active)

SMILES: COc1ccc(C2C(Oc3ccccc3)C(=O)N2c2cc(C)ccc2C)cc1OC (configuration not stated)
- EC50 [1]: 2.24 µM (active)
- EC50 [2]: > 60 µM (not active)

SMILES: CCc1ccc(OCC(=O)NC(N=C(S)Nc2ccccc2C)C(Cl)(Cl)Cl)cc1 (configuration not stated)
- EC50 [1]: 3.62 µM (active)
- EC50 [2]: > 60 µM (not active)
